One test has as its target T1, Aurora A (Homo sapiens, UniProt O14965).
T1 sequence (O14965 1-403): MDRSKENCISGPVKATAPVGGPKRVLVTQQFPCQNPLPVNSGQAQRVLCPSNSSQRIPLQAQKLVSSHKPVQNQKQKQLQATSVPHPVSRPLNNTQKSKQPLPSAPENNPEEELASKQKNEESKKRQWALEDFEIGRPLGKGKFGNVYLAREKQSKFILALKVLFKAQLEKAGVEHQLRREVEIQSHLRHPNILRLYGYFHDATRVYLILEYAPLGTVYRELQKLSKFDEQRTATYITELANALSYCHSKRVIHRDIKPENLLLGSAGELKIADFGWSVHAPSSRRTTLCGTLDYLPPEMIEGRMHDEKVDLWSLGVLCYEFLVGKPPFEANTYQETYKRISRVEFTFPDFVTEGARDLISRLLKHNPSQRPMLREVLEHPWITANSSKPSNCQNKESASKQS
Briefly: Aurora A enzyme inhibition (time-resolved fluorescence, STK substrate-2). Particulars: 1 mM ATP. Format: biochemical. The method, boiled down:
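Active enzyme incubated 1 h with biotinylated STK substrate-2, 1 mM ATP and inhibitor in Hepes pH 7.4 with MgCl2, orthovanadate and Triton X-100. EDTA stop; phosphopeptide detected by Eu-cryptate anti-phospho-STK/SA-XL665 TR-FRET (665/615 nm ratio); IC50 by exponential fit.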

For another test, the target named is KDR (Homo sapiens, UniProt P35968). Briefly: KDR HTRF in vitro kinase assay. Also noted: purified enzyme (His6-KDR 789-1354, MW 63 kD); His6 (N). Format: biochemical. Conditions: 1 mM ATP; read-out: KDR enzyme inhibition data (Ki). The method in brief: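 His6-KDR 789-1354 (7 ng/well) with 0.5 μM biotinylated peptide substrate and 1 mM ATP in HEPES pH 7.1, MgCl2/MnCl2, 60 min at room temperature. EDTA-quenched, detected by streptavidin-XL-665 plus Eu-kryptate anti-phosphotyrosine HTRF after 3 h; IC50 from 620/665 nm ratio.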
Chain of KDR (P35968 789-1354): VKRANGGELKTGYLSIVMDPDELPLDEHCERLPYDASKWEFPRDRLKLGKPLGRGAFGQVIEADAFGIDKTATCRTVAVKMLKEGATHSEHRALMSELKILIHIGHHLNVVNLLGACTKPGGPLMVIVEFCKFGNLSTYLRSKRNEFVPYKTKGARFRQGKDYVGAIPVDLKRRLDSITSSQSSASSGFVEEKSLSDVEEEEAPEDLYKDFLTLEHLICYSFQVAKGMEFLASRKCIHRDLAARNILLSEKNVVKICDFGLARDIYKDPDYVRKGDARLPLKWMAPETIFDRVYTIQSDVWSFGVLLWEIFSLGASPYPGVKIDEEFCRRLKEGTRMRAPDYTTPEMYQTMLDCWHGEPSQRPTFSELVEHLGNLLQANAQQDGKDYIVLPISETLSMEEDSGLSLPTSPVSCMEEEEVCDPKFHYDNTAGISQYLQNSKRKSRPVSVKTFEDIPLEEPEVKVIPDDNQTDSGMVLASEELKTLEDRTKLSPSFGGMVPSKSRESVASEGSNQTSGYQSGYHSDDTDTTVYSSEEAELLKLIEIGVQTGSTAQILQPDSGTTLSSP

Another test deals with NCI-H1299 cells. Briefly: Induction of polyploidy in H1299. In kind it is cell-based, Human. Particulars: NCI-H1299, 48 hours. On the procedure: To determine the induction of polyploidy in H1299 cells, NCI-H1299 were seeded (4K/well) into 96-well culture plates (tissue culture grade, black, flat-clear bottom) and incubated overnight to produce cell-to-plate adherence. Inhibitors at varying concentrations were added into duplicate wells containing cells and culture media (RPMI 1640, 10% fetal calf serum) and incubated at 37 C for 48 hours. The plates were then washed with PBS and the adherent cells fixed by incubating with 3% formalin for 1 hour. After washing four times with PBS, the cells were then stained with Hoechst and subjected to fluorescent (360 i/460e) microscopic high content analysis to determine the effect of inhibitors on nuclear size. Polyploid cells (≧4N) were defined as those having nuclear area>750μ^2. Potency was expressed as the concentration of inhibitor necessary to induce polyploidy in 15% of cells (EC15) and was calculated from least squares analysis of the log dose-response.

The next test deals with T2, Aurora B (Homo sapiens, UniProt Q96GD4).
T2 construct: Active Aurora B enzyme (recombinant residues 1-344)
T2 sequence (Q96GD4 whole entry, the tested form may be a part): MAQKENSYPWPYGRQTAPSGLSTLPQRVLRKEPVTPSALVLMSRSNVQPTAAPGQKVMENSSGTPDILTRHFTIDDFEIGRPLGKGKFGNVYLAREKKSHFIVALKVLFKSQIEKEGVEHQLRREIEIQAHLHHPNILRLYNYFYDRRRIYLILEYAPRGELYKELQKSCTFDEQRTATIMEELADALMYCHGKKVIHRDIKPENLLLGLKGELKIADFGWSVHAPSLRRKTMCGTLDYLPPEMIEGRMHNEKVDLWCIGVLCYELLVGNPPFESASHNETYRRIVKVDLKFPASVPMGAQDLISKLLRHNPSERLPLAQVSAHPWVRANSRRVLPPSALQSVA
T2 sequence (Q9NQS7 826-918 partner limits assumed): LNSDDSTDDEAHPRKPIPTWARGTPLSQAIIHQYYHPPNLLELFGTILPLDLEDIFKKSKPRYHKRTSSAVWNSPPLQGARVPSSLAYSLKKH
The test is described as follows: Aurora B enzyme inhibition (time-resolved fluorescence, histone H3 peptide). In kind it is biochemical. Particulars: 1 mM ATP. The method in brief: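 Recombinant Aurora B (residues 1-344) with GST-INCENP phosphorylated biotinylated histone H3 (1-21) peptide at 1 mM ATP in HEPES pH 7.4 with MgCl2, orthovanadate and Triton X-100 for 1 h. After EDTA stop, the phosphopeptide was detected by TR-FRET (Eu-cryptate anti-phospho-H3 / SA-APC, 665/615 nm ratio). IC50 from an exponential fit.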

The structures appear in SMILES notation.

The Ki is the dissociation constant of the complex between target and ligand, obtained from inhibition or displacement.

Consider `Cn1cc(Nc2ncc(F)c(N[C@@H]3[C@H]4CC[C@H](C4)[C@@H]3C(N)=O)n2)cn1.Cn1cc(Nc2ncc(F)c(N[C@H]3[C@@H]4CC[C@@H](C4)[C@H]3C(N)=O)n2)cn1` (mixture of isomers) [Example 12, (1R,2S,3R,4S)-3-({5-fluoro-2-[(1-methyl-1H-pyrazol-4-yl)amino]pyrimidin-4-yl}amino)bicyclo[2.2.1]heptane-2-carboxamide and (1S,2R,3S,4R)-3-({5-fluoro-2-[(1-methyl-1H-pyrazol-4-yl)amino]pyrimidin-4-yl}amino)bicyclo[2.2.1]heptane-2-carboxamide], for which the Ki at Aurora A was 0.1 to 1 µM; on KDR it was 0.1 to 1 µM; at Aurora B, less than 0.1 µM. For the same compound, the “EC15 (concentration of inhibitor necessary to induce polyploidy in 15% of cells)” value with NCI-H1299 cells is “B (“B” represents an EC15 of between 0.1 μM and 1 μM)”.
In the case of `CCn1cc(Nc2ncc(F)c(N[C@@H]3[C@H]4CC[C@H](C4)[C@@H]3C(N)=O)n2)cn1.CCn1cc(Nc2ncc(F)c(N[C@H]3[C@@H]4CC[C@@H](C4)[C@H]3C(N)=O)n2)cn1` (mixture of isomers) [Example 13, (1R,2S,3R,4S)-3-({2-[(1-ethyl-1H-pyrazol-4-yl)amino]-5-fluoropyrimidin-4-yl}amino)bicyclo[2.2.1]heptane-2-carboxamide and (1S,2R,3S,4R)-3-({2-[(1-ethyl-1H-pyrazol-4-yl)amino]-5-fluoropyrimidin-4-yl}amino)bicyclo[2.2.1]heptane-2-carboxamide], the Ki at Aurora A is less than 0.1 µM; at KDR, 0.1 to 1 µM; on Aurora B it was less than 0.1 µM. Further, the “EC15 (concentration of inhibitor necessary to induce polyploidy in 15% of cells)” value in the test on NCI-H1299 cells was “B (“B” represents an EC15 of between 0.1 μM and 1 μM)”.
For the compound `NC(=O)[C@@H]1[C@H]2CC[C@H](C2)[C@@H]1Nc1nc(Nc2cnn(CCO)c2)ncc1F.NC(=O)[C@H]1[C@@H]2CC[C@@H](C2)[C@H]1Nc1nc(Nc2cnn(CCO)c2)ncc1F` (mixture of isomers) [Example 14, (1R,2S,3R,4S)-3-[(5-fluoro-2-{[1-(2-hydroxyethyl)-1H-pyrazol-4-yl]amino}pyrimidin-4-yl)amino]bicyclo[2.2.1]heptane-2-carboxamide and (1S,2R,3S,4R)-3-[(5-fluoro-2-{[1-(2-hydroxyethyl)-1H-pyrazol-4-yl]amino}pyrimidin-4-yl)amino]bicyclo[2.2.1]heptane-2-carboxamide], the figures for the Ki at Aurora A, at KDR and at Aurora B were 0.1 to 1 µM, 1 to 5 µM and less than 0.1 µM, respectively. The “EC15 (concentration of inhibitor necessary to induce polyploidy in 15% of cells)” value with NCI-H1299 cells is “B (“B” represents an EC15 of between 0.1 μM and 1 μM)”.
With `Cc1cnc(Nc2cnn(C)c2)nc1N[C@@H]1[C@H](C(N)=O)[C@H]2C=C[C@@H]1C2.Cc1cnc(Nc2cnn(C)c2)nc1N[C@H]1[C@@H](C(N)=O)[C@@H]2C=C[C@H]1C2` (mixture of isomers) [Example 17, (1S,2S,3R,4R)-3-({5-methyl-2-[(1-methyl-1H-pyrazol-4-yl)amino]pyrimidin-4-yl}amino)bicyclo[2.2.1]hept-5-ene-2-carboxamide and (1R,2R,3S,4S)-3-({5-methyl-2-[(1-methyl-1H-pyrazol-4-yl)amino]pyrimidin-4-yl}amino)bicyclo[2.2.1]hept-5-ene-2-carboxamide], the Ki is 0.1 to 1 µM on Aurora A, 0.1 to 1 µM on KDR and less than 0.1 µM on Aurora B. Moreover, in the test with NCI-H1299 cells, the “EC15 (concentration of inhibitor necessary to induce polyploidy in 15% of cells)” value is “A (“A” represents an EC15 of less than 0.1 μM)”.
Regarding `Cc1cnc(Nc2cnn(CCO)c2)nc1N[C@@H]1[C@H](C(N)=O)[C@H]2C=C[C@@H]1C2.Cc1cnc(Nc2cnn(CCO)c2)nc1N[C@H]1[C@@H](C(N)=O)[C@@H]2C=C[C@H]1C2` (mixture of isomers) [Example 18, (1S,2S,3R,4R)-3-[(2-{[1-(2-hydroxyethyl)-1H-pyrazol-4-yl]amino}-5-methylpyrimidin-4-yl)amino]bicyclo[2.2.1]hept-5-ene-2-carboxamide and (1R,2R,3S,4S)-3-[(2-{[1-(2-hydroxyethyl)-1H-pyrazol-4-yl]amino}-5-methylpyrimidin-4-yl)amino]bicyclo[2.2.1]hept-5-ene-2-carboxamide], the Ki on Aurora A, on KDR and on Aurora B was 0.1 to 1 µM throughout. In the test on NCI-H1299 cells, the “EC15 (concentration of inhibitor necessary to induce polyploidy in 15% of cells)” value was “A (“A” represents an EC15 of less than 0.1 μM)”.
On to `Cn1cc(Nc2ncc(C(F)(F)F)c(N[C@@H]3C[C@H]4CC[C@@H]3C4)n2)cn1.Cn1cc(Nc2ncc(C(F)(F)F)c(N[C@H]3C[C@@H]4CC[C@H]3C4)n2)cn1` (mixture of isomers) [Example 23, N^4-[(1S,2S,4R)-bicyclo[2.2.1]hept-2-yl]-N^2-(1-methyl-1H-pyrazol-4-yl)-5-(trifluoromethyl)pyrimidine-2,4-diamine and N^4-[(1R,2R,4S)-bicyclo[2.2.1]hept-2-yl]-N^2-(1-methyl-1H-pyrazol-4-yl)-5-(trifluoromethyl)pyrimidine-2,4-diamine], for which the Ki at Aurora A was 0.1 to 1 µM; on KDR, 0.1 to 1 µM; at Aurora B, less than 0.1 µM. Further, the “EC15 (concentration of inhibitor necessary to induce polyploidy in 15% of cells)” value in the test on NCI-H1299 cells was “B (“B” represents an EC15 of between 0.1 μM and 1 μM)”.
For `Cn1cc(Nc2ncc(C(F)(F)F)c(N[C@@H]3CCC[C@@H]3C(N)=O)n2)cn1.Cn1cc(Nc2ncc(C(F)(F)F)c(N[C@H]3CCC[C@H]3C(N)=O)n2)cn1` (mixture of isomers) [Example 25, (1S,2R)-2-{[2-[(1-methyl-1H-pyrazol-4-yl)amino]-5-(trifluoromethyl)pyrimidin-4-yl]amino}cyclopentanecarboxamide and (1R,2S)-2-{[2-[(1-methyl-1H-pyrazol-4-yl)amino]-5-(trifluoromethyl)pyrimidin-4-yl]amino}cyclopentanecarboxamide], the Ki was 0.1 to 1 µM at Aurora A, 0.1 to 1 µM on KDR and less than 0.1 µM on Aurora B. Besides, the “EC15 (concentration of inhibitor necessary to induce polyploidy in 15% of cells)” value in the test with NCI-H1299 cells is “A (“A” represents an EC15 of less than 0.1 μM)”.
For `Cn1cc(Nc2ncc(C(F)(F)F)c(N[C@@H]3CC=CC[C@@H]3C(N)=O)n2)cn1.Cn1cc(Nc2ncc(C(F)(F)F)c(N[C@H]3CC=CC[C@H]3C(N)=O)n2)cn1` (mixture of isomers) [Example 26, (1S,6R)-6-{[2-[(1-methyl-1H-pyrazol-4-yl)amino]-5-(trifluoromethyl)pyrimidin-4-yl]amino}cyclohex-3-ene-1-carboxamide and (1R,6S)-6-{[2-[(1-methyl-1H-pyrazol-4-yl)amino]-5-(trifluoromethyl)pyrimidin-4-yl]amino}cyclohex-3-ene-1-carboxamide], the inhibitory constant (Ki) on Aurora A was 1 to 5 µM; at KDR it was 1 to 5 µM; at Aurora B, less than 0.1 µM. For the same compound, the “EC15 (concentration of inhibitor necessary to induce polyploidy in 15% of cells)” value in the test with NCI-H1299 cells was “A (“A” represents an EC15 of less than 0.1 μM)”.
For the compound `Cn1cc(Nc2ncc(Cl)c(N[C@@H]3[C@H](C(N)=O)[C@@H]4C=C[C@H]3C4)n2)cn1.Cn1cc(Nc2ncc(Cl)c(N[C@H]3[C@@H](C(N)=O)[C@H]4C=C[C@@H]3C4)n2)cn1` (mixture of isomers) [Example 120, (1S,2R,3S,4R)-3-({5-chloro-2-[(1-methyl-1H-pyrazol-4-yl)amino]pyrimidin-4-yl}amino)bicyclo[2.2.1]hept-5-ene-2-carboxamide and (1R,2S,3R,4S)-3-({5-chloro-2-[(1-methyl-1H-pyrazol-4-yl)amino]pyrimidin-4-yl}amino)bicyclo[2.2.1]hept-5-ene-2-carboxamide], the Ki at Aurora A, on KDR and on Aurora B was less than 0.1 µM throughout. Further, in the test on NCI-H1299 cells, the “EC15 (concentration of inhibitor necessary to induce polyploidy in 15% of cells)” value is “B (“B” represents an EC15 of between 0.1 μM and 1 μM)”.

The values are drawn from patent publication US8426408B2, “Pyrimidine inhibitors of kinases” (AbbVie Inc., priority 2009, dated 2013).
